Marks after values point to notes of the source that are not given here. Numbered stars: 1 amine (or outer) side, 2 acyl side, 3 side chain; on linkers, the order of the positions; unused ones are H or OH. Square brackets hold non-standard residues; d marks the D form. Side chains are listed from the residue outwards. Peptide text beside a SMILES is read from it. * marks the point of attachment. C20 diacid = O=C(O)CCCCCCCCCCCCCCCCCCC(=O)*; γGlu = O=C(O)[C@H](CCC(=O)[*:2])N[*:1]; AEEA = NCCOCCOCC(=O)O; Aib = CC(C)(N)C(=O)O
Legend:
[1] = tested on: diet-induced-obesity mice; experiment: Viscera/brain ratio for fat mass in different parts of diet-induced obesity mice; format: in vivo, C57BL/6 mice
Protocol: High-fat food-induced-obesity male C57BL/6 mice (weighing 35-55 g, aged 10-12 weeks, purchased from Shanghai Jiesijie Laboratory Animal Co., Ltd.) were tested. […] According to the experimental design, the body weight of each mouse was measured and recorded on day 0, day 3, day 6, and so on to day 27, the average body weight of each group of mice was calculated, and body weight change curves were plotted by taking the body weight on the first day as the standard. At the end, the fat and other visceral organs of each part of the mice were taken out and weighed, and the viscera/brain ratio for fat in each part of each mouse was calculated. The effect of the drug on the fat was determined by comparing the change in the viscera/brain ratio for fat of different parts of each group of mice.

[2] = tested on: diet-induced-obesity mice; experiment: Body weight of diet-induced-obesity mice, subcutaneous administration once every 3 days; format: in vivo, C57BL/6 mice
human GLP-1R = human GLP-1R (Homo sapiens, UniProt P43220); experiment: Agonist activity against GLP-1R, cAMP HTRF in CHO-K1/GLP-1R/CRE-luc stable cells; settings: Activity against human GLP-1R (EC50 nM), Table 6 run
human GLP-1R, sequence (P43220 24-463): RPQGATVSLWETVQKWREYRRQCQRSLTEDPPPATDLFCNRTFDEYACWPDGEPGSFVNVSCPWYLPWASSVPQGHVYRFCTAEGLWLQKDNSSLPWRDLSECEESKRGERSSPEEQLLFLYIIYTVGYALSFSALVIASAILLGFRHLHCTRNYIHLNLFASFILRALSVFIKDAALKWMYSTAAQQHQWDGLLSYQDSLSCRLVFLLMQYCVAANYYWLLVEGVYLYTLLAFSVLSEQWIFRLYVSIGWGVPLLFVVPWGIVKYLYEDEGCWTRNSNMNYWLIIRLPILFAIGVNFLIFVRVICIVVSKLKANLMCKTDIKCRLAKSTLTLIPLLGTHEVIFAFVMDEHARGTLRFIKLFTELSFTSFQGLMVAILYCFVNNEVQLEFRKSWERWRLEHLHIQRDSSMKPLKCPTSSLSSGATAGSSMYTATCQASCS

CC[C@H](C)[C@H](NC(=O)[C@H](CCCCN)NC(=O)[C@H](CCC(=O)O)NC(=O)[C@H](CCCCNC(=O)COCCOCCNC(=O)COCCOCCNC(=O)CC[C@H](NC(=O)CCCCCCCCCCCCCCCCCCC(=O)O)C(=O)O)NC(=O)[C@H](Cc1ccc(O)cc1)NC(=O)[C@@H](NC(=O)[C@H](CO)NC(=O)[C@H](Cc1ccc(O)cc1)NC(=O)[C@H](CC(=O)O)NC(=O)[C@H](CO)NC(=O)[C@@H](NC(=O)[C@H](Cc1ccccc1)NC(=O)[C@@H](NC(=O)CNC(=O)[C@H](CCC(=O)O)NC(=O)C(C)(C)NC(=O)[C@@H](N)Cc1ccc(O)cc1)[C@@H](C)O)[C@@H](C)O)[C@@H](C)CC)C(=O)N[C@@H](C)C(=O)N[C@@H](C)C(=O)N[C@@H](CCC(N)=O)C(=O)N[C@@H](CCC(=O)O)C(=O)N[C@@H](Cc1ccccc1)C(=O)N[C@H](C(=O)N[C@@H](CC(N)=O)C(=O)N[C@@H](Cc1c[nH]c2ccccc12)C(=O)N[C@@H](CC(C)C)C(=O)N[C@@H](CC(C)C)C(=O)N[C@@H](C)C(=O)NCC(=O)NCC(=O)N1CCC[C@H]1C(=O)N[C@@H](CO)C(=O)N[C@@H](CO)C(=O)NCC(=O)N[C@@H](C)C(=O)N1CCC[C@H]1C(=O)N1CCC[C@H]1C(=O)N1CCC[C@H]1C(=O)N[C@@H](CO)C(N)=O)C(C)C [Compound 18#] (H-Y[Aib]EGTFTSDYSIYK([AEEA-AEEA-γGlu-C20 diacid])EKIAAQEFVNWLLAGGPSSGAPPPS-NH2)
viscera/brain ratio, Epididymal fat ([1]; 3 nmol/kg): 254.6 ± 113.4 %
viscera/brain ratio, Inguinal fat ([1]; 3 nmol/kg): 281.5 ± 140.1 %
viscera/brain ratio, Mesenteric fat ([1]; 3 nmol/kg): 84.8 ± 41.3 %
viscera/brain ratio, Perirenal fat ([1]; 3 nmol/kg): 159.2 ± 87.6 %
viscera/brain ratio, Scapular fat ([1]; 3 nmol/kg): 48 ± 15.3%
viscera/brain ratio, Subcutaneous fat ([1]; 3 nmol/kg): 120 ± 62 %
viscera/brain ratio, Epididymal fat ([1]; 10 nmol/kg): 211.7 ± 80.7 %
viscera/brain ratio, Inguinal fat ([1]; 10 nmol/kg): 194.4 ± 86.2 %
viscera/brain ratio, Mesenteric fat ([1]; 10 nmol/kg): 53.3 ± 14.6 %
viscera/brain ratio, Perirenal fat ([1]; 10 nmol/kg): 109.4 ± 57.1 %
viscera/brain ratio, Scapular fat ([1]; 10 nmol/kg): 42.5 ± 17^ %
viscera/brain ratio, Subcutaneous fat ([1]; 10 nmol/kg): 122 ± 73.2 %
viscera/brain ratio, Epididymal fat ([1]; 100 nmol/kg): 102.9 ± 32.2 %
viscera/brain ratio, Inguinal fat ([1]; 100 nmol/kg): 92 ± 34.5 %
viscera/brain ratio, Mesenteric fat ([1]; 100 nmol/kg): 27.4 ± 11.1 %
viscera/brain ratio, Perirenal fat ([1]; 100 nmol/kg): 46.6 ± 18.2 %
viscera/brain ratio, Scapular fat ([1]; 100 nmol/kg): 32.3 ± 7%
viscera/brain ratio, Subcutaneous fat ([1]; 100 nmol/kg): 57.1 ± 21.2 %
content of fat of each part (except scapular fat) relative to placebo group ([1]; all dose test groups): significantly reduced
rate of change in body weight ([2]; 3 nmol/kg, day 0 (before administration)): 0%
rate of change in body weight ([2]; 3 nmol/kg, day 1 after administration): −5 ± 0.6%
rate of change in body weight ([2]; 3 nmol/kg, day 2 after administration): −6.3 ± 1 ^ %
rate of change in body weight ([2]; 3 nmol/kg, day 3 after administration): −5.8 ± 1.9%
rate of change in body weight ([2]; 3 nmol/kg, day 4 after administration): −9.1 ± 2.1 %
rate of change in body weight ([2]; 3 nmol/kg, day 5 after administration): −10.3 ± 3.2 %
rate of change in body weight ([2]; 3 nmol/kg, day 6 after administration): −10 ± 4.4 %
rate of change in body weight ([2]; 3 nmol/kg, day 7 after administration): −13 ± 5.3 %
rate of change in body weight ([2]; 3 nmol/kg, day 8 after administration): −13.9 ± 6.1 %
rate of change in body weight ([2]; 3 nmol/kg, day 9 after administration): −13.9 ± 7.4 %
rate of change in body weight ([2]; 3 nmol/kg, day 10 after administration): −16.6 ± 7.8 %
rate of change in body weight ([2]; 3 nmol/kg, day 11 after administration): −16.4 ± 8.2 %
rate of change in body weight ([2]; 3 nmol/kg, day 12 after administration): −15.7 ± 8.6 %
rate of change in body weight ([2]; 3 nmol/kg, day 13 after administration): −18.2 ± 8.2 %
rate of change in body weight ([2]; 3 nmol/kg, day 14 after administration): −17.1 ± 7.2 %
rate of change in body weight ([2]; 3 nmol/kg, day 15 after administration): −15.7 ± 7.4 %
rate of change in body weight ([2]; 3 nmol/kg, day 16 after administration): −18.6 ± 7 %
rate of change in body weight ([2]; 3 nmol/kg, day 17 after administration): −18.3 ± 7***^ %
rate of change in body weight ([2]; 3 nmol/kg, day 18 after administration): −17.9 ± 7.1 %
rate of change in body weight ([2]; 3 nmol/kg, day 19 after administration): −20.5 ± 7.5 %
rate of change in body weight ([2]; 3 nmol/kg, day 20 after administration): −19.8 ± 7.4 %
rate of change in body weight ([2]; 3 nmol/kg, day 21 after administration): −17.8 ± 7.3 %
rate of change in body weight ([2]; 3 nmol/kg, day 22 after administration): −19.3 ± 8.2 %
rate of change in body weight ([2]; 3 nmol/kg, day 23 after administration): −19.1 ± 7.6 %
rate of change in body weight ([2]; 3 nmol/kg, day 24 after administration): −17.3 ± 7.4 %
rate of change in body weight ([2]; 3 nmol/kg, day 25 after administration): −19.9 ± 7.6 %
rate of change in body weight ([2]; 3 nmol/kg, day 26 after administration): −18.8 ± 8 %
rate of change in body weight ([2]; 3 nmol/kg, day 27 after administration): −16.1 ± 7.6 %
rate of change in body weight ([2]; 3 nmol/kg, day 28 after administration): −19.2 ± 8***^ %
body weight reduced ([2]; 10 nmol/kg dose group, day 27): more than 20.0%
rate of change in body weight ([2]; 10 nmol/kg, day 0 (before administration)): 0%
rate of change in body weight ([2]; 10 nmol/kg, day 1 after administration): −6.2 ± 1.1%
rate of change in body weight ([2]; 10 nmol/kg, day 2 after administration): −8.6 ± 0.9 %
rate of change in body weight ([2]; 10 nmol/kg, day 3 after administration): −9.4 ± 1.6 %
rate of change in body weight ([2]; 10 nmol/kg, day 4 after administration): −12.7 ± 2.4 %
rate of change in body weight ([2]; 10 nmol/kg, day 5 after administration): −14.5 ± 3.3 %
rate of change in body weight ([2]; 10 nmol/kg, day 6 after administration): −15 ± 5.3 %
rate of change in body weight ([2]; 10 nmol/kg, day 7 after administration): −18.3 ± 6.3 %
rate of change in body weight ([2]; 10 nmol/kg, day 8 after administration): −20.1 ± 8***^ %
rate of change in body weight ([2]; 10 nmol/kg, day 9 after administration): −20.3 ± 9.3 %
rate of change in body weight ([2]; 10 nmol/kg, day 10 after administration): −23.4 ± 9.8 %
rate of change in body weight ([2]; 10 nmol/kg, day 11 after administration): −23.9 ± 10.7 %
rate of change in body weight ([2]; 10 nmol/kg, day 12 after administration): −23.5 ± 11.4 %
rate of change in body weight ([2]; 10 nmol/kg, day 13 after administration): −26.4 ± 11.8 %
rate of change in body weight ([2]; 10 nmol/kg, day 14 after administration): −25.1 ± 12.1 %
rate of change in body weight ([2]; 10 nmol/kg, day 15 after administration): −23.4 ± 9***^ %
rate of change in body weight ([2]; 10 nmol/kg, day 16 after administration): −26.6 ± 9.7 %
rate of change in body weight ([2]; 10 nmol/kg, day 17 after administration): −25.7 ± 8.7 %
rate of change in body weight ([2]; 10 nmol/kg, day 18 after administration): −24.6 ± 8.2 %
rate of change in body weight ([2]; 10 nmol/kg, day 19 after administration): −27.5 ± 7.6 %
rate of change in body weight ([2]; 10 nmol/kg, day 20 after administration): −27.3 ± 7.2 %
rate of change in body weight ([2]; 10 nmol/kg, day 21 after administration): −24.8 ± 6.7 %
rate of change in body weight ([2]; 10 nmol/kg, day 22 after administration): −28.1 ± 7.4 %
rate of change in body weight ([2]; 10 nmol/kg, day 23 after administration): −27.1 ± 7***^ %
rate of change in body weight ([2]; 10 nmol/kg, day 24 after administration): −26 ± 7.1 %
rate of change in body weight ([2]; 10 nmol/kg, day 25 after administration): −28.5 ± 8.8 %
rate of change in body weight ([2]; 10 nmol/kg, day 26 after administration): −27.8 ± 8.3 %
rate of change in body weight ([2]; 10 nmol/kg, day 27 after administration): −24.8 ± 8.4 %
rate of change in body weight ([2]; 10 nmol/kg, day 28 after administration): −28.2 ± 8.3 %
rate of change in body weight ([2]; 100 nmol/kg, day 0 (before administration)): 0%
rate of change in body weight ([2]; 100 nmol/kg, day 1 after administration): −6.3 ± 0.5%
rate of change in body weight ([2]; 100 nmol/kg, day 2 after administration): −10.9 ± 0.8 %
rate of change in body weight ([2]; 100 nmol/kg, day 3 after administration): −13.2 ± 1 %
rate of change in body weight ([2]; 100 nmol/kg, day 4 after administration): −15.7 ± 0.9 %
rate of change in body weight ([2]; 100 nmol/kg, day 5 after administration): −19.2 ± 1.3 %
rate of change in body weight ([2]; 100 nmol/kg, day 6 after administration): −21.8 ± 2.3 %
rate of change in body weight ([2]; 100 nmol/kg, day 7 after administration): −24.7 ± 3.3 %
rate of change in body weight ([2]; 100 nmol/kg, day 8 after administration): −27.6 ± 3.7 %
rate of change in body weight ([2]; 100 nmol/kg, day 9 after administration): −29.6 ± 4.7 %
rate of change in body weight ([2]; 100 nmol/kg, day 10 after administration): −31.6 ± 5.3 %
rate of change in body weight ([2]; 100 nmol/kg, day 11 after administration): −33.7 ± 6.3 %
rate of change in body weight ([2]; 100 nmol/kg, day 12 after administration): −34.4 ± 7.1 %
rate of change in body weight ([2]; 100 nmol/kg, day 13 after administration): −35.6 ± 6.2 %
rate of change in body weight ([2]; 100 nmol/kg, day 14 after administration): −36.7 ± 5.7 %
rate of change in body weight ([2]; 100 nmol/kg, day 15 after administration): −35.7 ± 5.6 %
rate of change in body weight ([2]; 100 nmol/kg, day 17 after administration): −38.2 ± 6.2 %
rate of change in body weight ([2]; 100 nmol/kg, day 18 after administration): −37.8 ± 6.5 %
rate of change in body weight ([2]; 100 nmol/kg, day 19 after administration): −38.5 ± 6.5 %
rate of change in body weight ([2]; 100 nmol/kg, day 20 after administration): −39 ± 6.5 %
rate of change in body weight ([2]; 100 nmol/kg, day 21 after administration): −37.4 ± 6.6 %
rate of change in body weight ([2]; 100 nmol/kg, day 22 after administration): −38.3 ± 6.2 %
rate of change in body weight ([2]; 100 nmol/kg, day 23 after administration): −38 ± 5.9 %
rate of change in body weight ([2]; 100 nmol/kg, day 24 after administration): −36.8 ± 5.8 %
rate of change in body weight ([2]; 100 nmol/kg, day 25 after administration): −38.6 ± 5.7 %
rate of change in body weight ([2]; 100 nmol/kg, day 26 after administration): −38.9 ± 6 %
rate of change in body weight ([2]; 100 nmol/kg, day 27 after administration): −36.8 ± 5.3 %
rate of change in body weight ([2]; 100 nmol/kg, day 28 after administration): −37.9 ± 5.7 %
body weight-reducing effect on high-fat food-induced-obesity mice ([2]; doses of 3, 10 and 100 nmol/kg): significant body weight-reducing effect
EC50 (human GLP-1R): 0.013 nM

Reference: patent US20250115654A1, “PHARMACEUTICAL COMPOSITION OF GLP-1 RECEPTOR AND GIP RECEPTOR DUAL AGONIST, AND USE THEREOF” (FUJIAN SHENGDI PHARMACEUTICAL CO., LTD., priority 2021, published 2025)
